Source: publication PMC4740413, “Multi-Drug Resistance Transporters and a Mechanism-Based Strategy for Assessing Risks of Pesticide Combinations to Honey Bees” (PLoS ONE, 2016)
Read-outs that look alike come from different tables or passages of the source.

Tests used:
[1] = system: honey bees; experiment: Acetamiprid assay: honey bee mortality after acetamiprid with or without inhibitors; details: for Mean mortality, acetamiprid with inhibitor: 1 mM inhibitor + 0.1 μg/μl acetamiprid; for Mean mortality, inhibitor only: 1 mM inhibitor without insecticide, 3 replicate cages
[2] = system: honey bees; details: for Mortality (SE) 1 μg/ml IVM and 1mM Inhibitor: 1 mM inhibitor fed 24 h, then 1 mM inhibitor + 1 μg/ml ivermectin, proportion of bees dead at 24 h; for Mortality (SE), inhibitor-only control: 1 mM inhibitor without ivermectin, proportion of bees dead
Description: Apis mellifera were obtained from hives maintained on the University of Maryland farm in Beltsville, MD. Hives were maintained by standard bee keeping practices, and kept free of in-hive medications. Brood frames were taken from hives and emerging bees were collected daily into 207 ml cages of 15–20 bees and fed 30% sucrose w/v solution. Bees used in bioassays were 3–7 days post-eclosion.
Mortality was recorded 24 h after ivermectin exposure for 20–28 replicate cages of bees with approximately 15 bees in each cage. No-inhibitor controls (15 cages) were included in each assay. […] Mortality rates for each concentration of ivermectin were estimated by averaging the mortality of approximately 15 bees contained in each of 4 replicate cages. Similarly, to measure changes in sensitivity to ivermectin at varying dosages of the inhibitors, 4–12 replicate cages of bees (fewer at extreme dosages, more at intermediates) were fed a series of concentrations of each inhibitor (0, 0.03, 0.06, 0.125, 0.25, 0.5, 1.0, 2.0 mM) for 24 h, then fed a combination of the same inhibitor dose and 1μg/ml ivermectin solution.
Mortality was estimated as the proportion of bees within a cage that were dead at 24 or 48 h after treatment with ivermectin. Comparisons of mean mortality among treatments were tested using t-tests. LC50s of ivermectin with inhibitors were estimated using the ProcProbit procedure in SAS (V. 9.2).

| Compound | Mean mortality, acetamiprid alone ([1]; 0.1 μg/μl acetamiprid, 24 h) | Synergism Ratio (LC50 relative to IVM) ([2]; 1 mM inhibitor) | LC50 of ivermectin ([2]; ivermectin alone in syrup, 24 h) | Mortality (SE) 1 μg/ml IVM and 1mM Inhibitor [2] | Mortality (SE), inhibitor-only control [2] | Mortality (SE), inhibitor-only control ([2]; listed as quercetin) | Mean mortality, acetamiprid with inhibitor ([1]; 24 h) | Mean mortality, inhibitor only [1] | Low inhibitor dosage that increases sensitivity of bees to ivermectin ([2]; 1 μg/ml ivermectin, 24 h (Fig 2)) | Mortality (SE), inhibitor-only control ([2]; listed as fumagillin) |
| --- | --- | --- | --- | --- | --- | --- | --- | --- | --- | --- |
| C/C(=N\C#N)N(C)Cc1ccc(Cl)nc1 [acetamiprid] | 0.25 | – | – | – | – | – | – | – | – | – |
| CC[C@H](C)[C@H]1O[C@]2(CC[C@@H]1C)C[C@@H]1C[C@@H](C/C=C(\C)[C@@H](O[C@H]3C[C@H](OC)[C@@H](O[C@H]4C[C@H](OC)[C@@H](O)[C@H](C)O4)[C@H](C)O3)[C@@H](C)/C=C/C=C3\CO[C@@H]4[C@H](O)C(C)=C[C@@H](C(=O)O1)[C@]34O)O2 [Ivermectin (IVM), Ivermectin] | – | 1.00 | 1.57 µg/mL | – | – | – | – | – | – | – |
| O=c1c(O)c(-c2ccc(O)c(O)c2)oc2cc(O)cc(O)c12 [Quercetin, quercetin] | – | – | – | 0.54 | 0.02 (0.02) | 0.02 | 0.97 | 0.07 | – | – |
| CO[C@@H]1[C@H](OC(=O)/C=C/C=C/C=C/C=C/C(=O)O)CC[C@]2(CO2)[C@H]1[C@@]1(C)O[C@@H]1CC=C(C)C [Fumagillin, fumagillin] | – | – | – | 0.47 | 0.01 (0.01) | – | 0.80 | 0.01 | 0.03 mM | 0.01 |
